Results published in PubChem BioAssay AID179 (DTP/NCI, 2004).
pEC50, pIC50: −log10 of the molar value. Several values for one entry are separate records, joined by “and”; a condition that tells them apart may be missing. Equal entries are not always repeated. Activity calls are given as the source filed them.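 The calls were made as follows: active = compounds giving half or more protection of infected cells from virus-caused growth loss, again on retest; inactive = the rest.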

System: CEM cells HIV-1 protection, formazan growth assay
Assay: NCI AIDS Antiviral Assay
Conditions: for pIC50: measured here: growth of uninfected CEM cells
Method in brief: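 Screen of anti-HIV-1 activity in human CEM cells using a formazan-based growth measurement at five drug concentrations. Hits with 50% or greater protection were repeated, and confirmation required reproducible complete protection.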

| SMILES | outcome | pEC50 | pIC50 |
| --- | --- | --- | --- |
| CC(=O)N/C(=C\c1ccc(/C=C(\NC(C)=O)c2nc3ccc(Cl)cc3[nH]2)cc1)c1nc2ccccc2[nH]1 | inactive |  |  |
| CN(C)CC(C)(C)C(=O)/C=C/c1ccccc1 | inactive |  |  |
| CC[C@@]12CCC(=S)N(CCSc3ccccc3)[C@@H]1c1c(n(S(=O)(=O)c3ccc(OC)cc3)c3ccccc13)CC2 |  | < 3.70 | < 3.70 |
| O=C(CCCN1CCN(c2ccccn2)CC1)c1ccc(F)cc1 |  | < 3.88 | 4.14 |
| C/C(=N\N=C(N)N)c1sc(-c2nc(C)c(/C(C)=N/N=C(N)N)s2)nc1C |  | < 3.90 | < 3.90 |
| COc1ccc(C[N+](C)(C)N)cc1OC |  | < 3.70 | < 3.70 |
| Cc1c2c(cc3c1C(=O)C(=O)C([C@@H](C)CO)=C3O)C(C)(C)CCC2 |  | < 3.70 | 4.82 |
| Cc1nn(C(=O)c2ccncc2)c2c1C(c1ccc(Cl)cc1)SC(N)=N2 (centres undefined) |  | < 3.70 | 4.51 |
| CCOC(=O)CC(C)C1(C=O)CCCCC1=O (centres undefined) |  | < 3.12 | < 3.12 |
| COc1ccc(C(=O)O)c2c(=O)c3ccccc3[nH]c12 | inactive |  |  |
| O=C(c1ccccc1)C(c1ccccc1)C1(O)C(=O)Nc2ccc([N+](=O)[O-])cc21 (centres undefined) |  | < 4.59 | < 4.59 |
| Cc1c(NC(=O)CSC(=S)N(C)C)c(=O)n(-c2ccccc2)n1C |  | 4.05 | < 3.70 |
| C=CC1(c2ccc(Br)cc2)OCCCO1 |  | < 3.70 | < 3.70 |
| CN(CCO)CNC(=O)C1=C(O)C2(O)C(=O)C3=C(O)c4c(O)cccc4C(C)(O)C3CC2C(N(C)C)C1=O (centres undefined) |  | < 3.75 | < 3.75 |
| O=C(NCCN1CCOCC1)C1(O)N=C(c2ccccc2)c2ccsc2-n2cccc21 (centres undefined) |  | < 3.70 | 3.91 |
| CCCCCCc1ccc(C(=O)NO)cc1 |  | < 3.70 | 4.04 |
| CC1(C)CC(=O)C(/C(=N/NC(=S)NN)C(=O)Nc2nc3ccc([N+](=O)[O-])cc3s2)C(=O)C1 |  | < 4.27 | < 4.27 |
| Cc1ccc2c(c1)C1(SC(C)C(=O)N1c1ccc(I)cc1)C(=O)N2 (centres undefined) |  | < 3.70 | 4.70 |
| N#CC(c1nc2ccccc2nc1Cl)S(=O)(=O)c1ccccc1 (centres undefined) |  | < 3.98 | 5.17 |
| Cc1ccc(S(=O)(=O)Oc2coc(CO)cc2=O)cc1 |  | < 3.70 | 4.91 |
| Cc1ccc2nc(-c3ccc(N=NNc4ccc(-c5nc6ccc(C)c(S(=O)(=O)O)c6s5)cc4)cc3)sc2c1S(=O)(=O)O |  | 3.76 | < 3.70 |
| Cc1cn([C@H]2[C@@H](CO)C[C@H]2O)c(=O)[nH]c1=O |  | < 3.70 | < 3.70 |

| SMILES | outcome | pEC50 | pIC50 |
| --- | --- | --- | --- |
| Oc1nc2nc[nH]n2c1N=Nc1ccccc1 |  | < 3.70 | < 3.70 |
| O=C(O)c1ccccc1Sc1ccccc1[N+](=O)[O-] | inactive |  |  |
| O=S(=O)(c1ccccc1)C(c1ccc2ccccc2n1)S(=O)(=O)c1ccccc1 |  | < 3.70 | 4.38 |
| OC1CCN2Cc3ccccc3N=C12 (centres undefined) |  | < 3.70 | < 3.70 |
| COc1cc(C(=O)/C=C/c2ccccc2O)ccc1O |  | < 3.88 | 3.99 |
| CC1=C2c3ccccc3N(S(=O)(=O)c3ccccc3)[C@H]2[C@H](C(=O)N2C3CC4CC[C@@]3(CS2(=O)=O)C4(C)C)CC1 (some centres undefined) |  | 5.28 | 4.73 |
| C#C[C@@]1(O)CCCC2=CC3(CC[C@]21C)SCCS3 |  | < 3.70 | 4.05 |
| COc1ccc(-c2c(N)cnc(C(=O)O)c2C)c(O)c1OC | inactive |  |  |
| Cc1coc2c1C(=O)C(=O)c1c-2ccc2c1CCCC2(C)C |  | < 3.70 | 4.59 |
| [NH-]C(CCC(N)=O)C(=O)O.[NH-]C(CCCCN)C(=O)O.[Zn+2] (centres undefined) |  | < 3.70 | < 3.70 |
| C=C=C(Sc1ccccc1)C(C)(C)O |  | < 3.60 | 3.80 |
| O=[N+]([O-])c1cc2ccc(O)cc2c2ccccc12 |  | 4.29 | 4.21 |
| ClC(Cl)[Si]12OCCN(CCO1)CCO2 | inactive |  |  |
| CN(c1ccccc1)S(=O)(=O)c1cccc([N+](=O)[O-])c1 |  | 4.30 | 3.98 |
| CCOC(=O)/C=C1\c2ccccc2C(=O)N1CC(=O)OCC | inactive |  |  |
| O=C(NCc1cc(CNC(=O)c2cccc(O)c2O)cc(CNC(=O)c2cccc(O)c2O)c1)c1cccc(O)c1O |  | < 3.70 | 5.71 |
| COc1cc2c(cc1OC)[C@H](C)N1CCc3cc(OC)c(OC)cc3[C@@H]1C2 |  | < 3.70 | < 3.70 |
| CCOC(=O)c1c(OC)cc2n(c1=O)Cc1cc3ccccc3nc1-2 |  | < 5.00 | < 5.00 |
| CCC(=O)C(CCN1CCC(N2C(=O)C(CCC#N)c3ccccc32)CC1)(c1ccccc1)c1ccccc1 (centres undefined) |  | < 3.70 | 4.54 |
| COc1ccc(N(CN2C(=O)CCC2C(=O)O)C(C)=O)cc1 (centres undefined) | inactive |  |  |
| CCOC(=O)C1=C(C)N(C2OC(COC(C)=O)C(OC(C)=O)C(OC(C)=O)C2OC(C)=O)C(=O)NC1c1ccccc1 (centres undefined) |  | < 4.50 | < 4.50 |
| N#Cc1cccc(C2SCc3nc4ccccc4n32)c1 (centres undefined) |  | 4.71 | 4.22 |

| SMILES | outcome | pEC50 | pIC50 |
| --- | --- | --- | --- |
| CC(=O)O[C@H]1CCC2[C@@H]3CCC4Nc5[nH]ncc5C[C@]4(C)C3CC[C@@]21C (some centres undefined) | inactive |  |  |
| Cc1cc(=O)oc2c3c(cc(OCc4ccccc4)c12)OC(C)(C)[C@H](OC(=O)C12CCC(C)(C(=O)O1)C2(C)C)[C@@H]3OC(=O)C12CCC(C)(C(=O)O1)C2(C)C (some centres undefined) |  | < 3.70 | 4.35 |
| CN(C)c1ccc(/C=C(\C#N)c2cccc(I)c2)cc1 |  | < 5.70 | 6.89 |
| Cn1c(=O)cc(CC(=O)C(=O)O)c2ccccc21 |  | < 3.70 | 3.83 |
| O=C(/C=C/c1ccc2c(c1)OCO2)NCCc1ccco1 |  | < 3.70 | 3.90 |
| CCN(CC)C(=S)SCn1nc(Cl)c2ccc([N+](=O)[O-])cc21 |  | < 4.16 | 4.39 |
| CCOC(CCCN1CCC2(CC1)C(=O)N(C)CN2c1ccccc1)(OCC)c1ccc(F)cc1 |  | < 3.70 | 4.82 |
| Cc1[nH]nc(N)c1C#N |  | < 3.70 | 3.72 |
| Nc1nc(Cl)c(/C=N\O)c(NCC2(CO)CCC2)n1 |  | < 4.70 | 4.94 |
| CN(C)CCNc1cccc2oc3ccc(O)cc3c(=O)c12 |  | < 3.36 | 5.24 |
| O=Nc1sc(=S)n(N2CCCCC2)c1O |  | < 3.70 | 3.98 |
| C(=C/c1nc2ccccc2o1)/c1ccc2c(c1)OCO2 |  | < 4.99 | < 4.99 |
| CN1C(=O)CC2(C)c3cc(O)ccc3N(C)C12 (centres undefined) | inactive |  |  |
| CCC12C[N+]3([O-])CCc4c([nH]c5ccccc45)C(C(=O)OC)(c4cc5c(cc4OC)N(C)C4C(O)(C(=O)OC)C(OC(C)=O)C6(CC)C=CCN7CCC54C76)CC(C3)C1O2 (centres undefined) | inactive |  |  |
| COC(=O)C(CC(=O)Nc1ccc(Cl)c(Cl)c1)C(=O)C(=O)NC1C2CC3CC(C2)CC1C3 (centres undefined) |  | < 4.15 | < 4.15 |
| O=C(NNC(=O)c1ccccc1Cl)c1ccccc1Cl |  | < 3.70 | < 3.70 |
| S=c1nnn(C2CCCN2)[nH]1 (centres undefined) |  | < 3.70 | < 3.70 |
| O=C(/C=C/c1ccccc1)c1cc(C(=O)/C=C/c2ccccc2)c(O)cc1O |  | < 3.70 | 4.16 |
| O=C(Nc1ccc(-c2ccccc2)oc1=O)c1ccccc1 |  | < 4.00 | < 4.00 |
| CC(C)(C)[Si](C)(C)OCC1OC(n2ccc(=O)[nH]c2=O)C(O[Si](C)(C)C(C)(C)C)C1C/C(N)=N/O (centres undefined) |  | < 3.70 | 5.18 and 4.51 |
| CCCN1CN(C(C(=O)N[C@@H]2C(=O)N3C2SC(C)(C)C3C(=O)O)c2ccc(O)cc2)CSC1=S (some centres undefined) |  | < 3.32 | 3.84 |
| O=C(Nc1c(-c2nc3ccccc3[nH]2)sc(=S)n1-c1ccccc1)c1ccccc1 |  | < 5.47 | < 5.47 |

| SMILES | outcome | pEC50 | pIC50 |
| --- | --- | --- | --- |
| O=C1CCCCc2scc(C(=O)O)c2N1 |  | < 2.95 | < 2.95 |
| Clc1ccc(NCc2nnc(CCCCCCCCc3nnc(CNc4ccc(Cl)cc4)o3)o2)cc1 |  | < 3.70 | < 3.70 |
| CCN(CC)CCOc1ccc(/C(=C(\Cl)c2ccccc2)c2ccccc2)cc1 |  | < 3.70 | 5.26 |
| COc1cc(OC)cc(Oc2nc3ccccc3nc2C(=O)O)c1 |  | < 3.70 | < 3.70 |
| O=C1NC(=O)C(C(=O)Nc2ccc(Cl)cc2)c2ccccc21 (centres undefined) |  | < 3.70 | 3.89 |
| CC1CCC2(OC1)OC1CC3C4CCC5CC(O)CCC5(C)C4CC(=O)OC3(C)C1C2C (centres undefined) | inactive |  |  |
| CC1C(c2ccccc2)=CCON1c1ccccc1 (centres undefined) |  | < 4.12 | < 4.12 |
| Cc1ccc(C(=O)n2nc(C)c(N=Nc3ccccc3)c2C)cc1 | inactive |  |  |
| COc1cccc2c1C(=O)c1ccc3cc(CO)cc(O)c3c1C2=O |  | < 3.70 | 5.95 |
| C[C@@H]1C[C@H](C)S(=O)[C@H](C)S1 (some centres undefined) |  | < 2.85 | < 2.85 |
| CCn1c2ccccc2c(=O)c2c(OC)ccc(OC)c21 | inactive |  |  |
| COC(=O)C1(Cc2ccc3c(c2)CCC3)Cc2ccccc2C1 |  | < 3.70 | 4.45 |
| Nc1nc(N)nc(-c2cnccn2)n1 |  | < 3.70 | < 3.70 |
| CC(=O)OC1C(CCl)OC(N=[N+]=[N-])C(OC(C)=O)C1OC(C)=O (centres undefined) | inactive |  |  |
| COc1c(C)c2nc3ccccc3[nH]c2c2c(=O)ccnc12 |  | < 4.00 | < 4.00 |
| COc1ccc(/C(Cl)=C(\C=O)c2ccc(OC)c(OC)c2)cc1OC |  | < 3.60 | < 3.60 |
| O=C(c1ccccc1)c1c(C(=O)c2ccccc2)c(-c2ccccc2)c2c(-c3ccccc3)sc(-c3ccccc3)c2c1-c1ccccc1 | inactive |  |  |
| O=C1CCC(=O)N2c3ccccc3-c3ccccc3N12 |  | < 3.72 | < 3.72 |
| O=C(NO)C12C3C4C1C1C2C3C41C(=O)NO (centres undefined) |  | < 2.95 | 3.20 |
| CCN(CC)CCn1c(=O)c2ccccc2n2c3c(=O)n(C)c(=O)n(C)c3nc12 |  | < 4.70 | 5.73 |
| CN(C)c1ccc(-c2nc(-c3cc4c(ccc5ccccc54)oc3=O)cs2)cc1 |  | < 4.00 | < 4.00 |
| O=C(C/C(CCC(=O)N(Cc1ccccc1)Cc1ccccc1)=N/Nc1ccc([N+](=O)[O-])cc1[N+](=O)[O-])c1ccccc1 | inactive |  |  |
